Experimental data taken from article PMC4766439, “Discovery of novel PDE9 inhibitors capable of inhibiting Aβ aggregation as potential candidates for the treatment of Alzheimer’s disease” (Scientific Reports, 2016).

Columns and labels:
Aβ1-42 [1] = biological target: T1, Aβ1-42 (Homo sapiens, UniProt P05067); experiment: ThT assay, inhibition of Cu^2+-induced Aβ1-42 aggregation; format: biochemical; conditions: [Aβ1-42] = 25 μM, compound 50 μM, [Cu^2+] = 25 μM, 37 °C, 24 h
T1 construct: the Aβ1-42 stock solution was diluted with HEPES buffer; purchased Sigma
Procedure: The Aβ1−42 sample (Sigma, US) was pretreated with hexafluoro-2-propanol (HFIP) and dissolved in ammonium hydroxide (1% v/v) to prepare a stock solution (2000 μM) that was aliquoted into small samples and stored at −80 °C.

Aβ1-42 [2] = biological target: T1, Aβ1-42; experiment: Transmission electron microscopy (TEM) assay of Aβ1-42; format: biochemical; conditions: [Aβ1-42] = 25 μM, compound 50 μM, [Cu^2+] = 25 μM, 37 °C, 24 h
Procedure: The assays were performed as reported previously. For the TEM assay of copper (II)-induced Aβ1-42 aggregation and the disaggregation of the fibrils, the samples were pretreated as described for the ThT assay. Samples (10 μL) were placed on a carbon-coated copper/rhodium grid for 2 min. Then, each grid was stained with uranyl acetate (1%, 5 μL) for 2 min. After the excess staining solution was drained off, the specimen was transferred for imaging by a transmission electron microscope (JEOL JEM-1400).

Aβ1-42 fibrils = biological target: T2, Aβ1-42 fibrils (Homo sapiens, UniProt P05067); experiment: ThT assay, disaggregation of Cu^2+-induced Aβ1-42 fibrils; format: biochemical; conditions: [Aβ1-42] = 25 μM, compound 50 μM, [Cu^2+] = 25 μM, additional 24 h
T2 construct: purchased Sigma
Procedure: For assaying the disaggregation of the copper (II)-induced Aβ1-42 fibrils, the Aβ1-42 stock solution was first diluted in HEPES buffer ([…], pH 6.6). The mixture of the peptide (10 μL, 25 μM final concentration) and copper (II) (10 μL, 25 μM final concentration) was then incubated at 37 °C for 24 h. Then, the test compound (10 μL, 50 μM final concentration) was added and incubated at 37 °C for an additional 24 h. Thereafter, 30 μL of the sample was diluted to a final volume of 200 μL with 50 mM glycine-NaOH buffer (pH 8.0) containing thioflavin-T (5 μM) in the dark. The detection method used was the same as that described above.

[3] = Oxygen Radical Absorbance Capacity (ORAC-FL) assay; conditions: Trolox as standard
Procedure: The assays were performed in 75 mM PBS (pH 7.4) and all the tested compounds were dissolved in DMSO and diluted with the PBS. Trolox was used as a standard (1–10 μM final concentration). The tested compounds at different concentrations (20 μL, final concentration: 2 μM) and fluorescein (FL, 120 μL, final concentration: 300 nM) were placed in the wells of a black 96-well plate. The mixture was incubated for 10 min at 37 °C and then, APPH solution (60 μL, final concentration: 12 mM diluted by 75 mM PBS) was added rapidly. […] A blank (FL + AAPH), with PBS replacing the compounds and Trolox was used for calibration in each assay. The compounds were tested at different concentrations (0.5–10 μM). The experiments were performed in three independent runs for each sample. The fluorescence measurements were normalized to that of the blank (without antioxidant). The area under the fluorescence decay curve (AUC) was calculated using the following equation (eq. 2):
where f0 is the fluorescence reading at 0 min and fi is the fluorescence reading at time i. The net AUC was calculated by the expression AUCsample − AUCblank. Regression equations between net AUC and Trolox concentrations were calculated. The final results were expressed in μM of Trolox equivalent/μM of pure compounds.

PDE7A1 (130–482) = biological target: T3, PDE7A1 (130–482) (Homo sapiens, UniProt Q13946); experiment: PDE activity assay, PDE7A1 catalytic domain; format: biochemical
T3 construct: PDE7A1 (130–482)
Procedure: (§1) The enzymatic activities of the catalytic domains of PDE9 and other PDEs were measured by using cGMP or cAMP as substrates. The assay buffer contained 20–50 mM Tris–HCl (pH 7.5–8.0), 10 mM MgCl2 or 4 mM MnCl2, 1 mM DTT, and 10–20 nM ^3H-cGMP or ^3H-cAMP (20000–30000 cpm/assay, GE Healthcare). The reaction was performed at room temperature for 15 min and then terminated by the addition of 0.2 M ZnSO4. The addition of 0.25 M BaSO4 precipitated the generated ^3H-GMP, whereas the unreacted ^3H-cGMP remained in solution. The radioactivity in the supernatant was measured in 2.5 mL with an Ultim Gold liquid scintillation counter. […] The IC50 values were calculated by nonlinear regression method by using GraphPad Prism 5.0 Software.

PDE2A3 (580–941) = biological target: T4, PDE2A3 (580–941) (Homo sapiens, UniProt O00408); experiment: PDE activity assay, PDE2A3 catalytic domain; format: biochemical
T4 construct: PDE2A3 (580–941)
Procedure: as §1

PDE10A2 (448–789) = biological target: T5, PDE10A2 (448–789) (Homo sapiens, UniProt Q9Y233); experiment: PDE activity assay, PDE10A2 catalytic domain; format: biochemical
T5 construct: PDE10A2 (448–789)
Procedure: as §1

PDE8A1 (480–820) = biological target: T6, PDE8A1 (480–820) (Homo sapiens, UniProt O60658); experiment: PDE activity assay, PDE8A1 catalytic domain; format: biochemical
T6 construct: PDE8A1 (480–820)
Procedure: as §1

PDE9A2 (181–506) = biological target: T7, PDE9A2 (181–506) (Homo sapiens, UniProt O76083); experiment: PDE activity assay, PDE9 catalytic domain; format: biochemical; conditions: means ± SD of at least three independent experiments
T7 construct: PDE9A2 (181–506)
Procedure: as §1

PDE3A (679–1087) = biological target: T8, PDE3A (679–1087) (Homo sapiens, UniProt Q14432); experiment: PDE activity assay, PDE3A catalytic domain; format: biochemical
T8 construct: PDE3A (679–1087)
Procedure: as §1

PDE4D2 (86–413) = biological target: T9, PDE4D2 (86–413) (Homo sapiens, UniProt Q08499); experiment: PDE activity assay, PDE4D2 catalytic domain; format: biochemical
T9 construct: PDE4D2 (86–413)
Procedure: as §1

[4] = Lipid-water distribution coefficient, shake-flask 1-octanol/water; format: physicochemical; conditions: 1-octanol/water (1:1), means of at least three independent tests
PDE5A1 (535–860) = PDE5A1 (535–860) (Homo sapiens, UniProt O76074); experiment: PDE activity assay, PDE5A1 catalytic domain; format: biochemical
Procedure: as §1

PDE1B2 (10–487) = biological target: T10, PDE1B2 (10–487) (Homo sapiens, UniProt Q01064); experiment: PDE activity assay, PDE1B2 catalytic domain; format: biochemical
T10 construct: PDE1B2 (10–487)
Procedure: as §1

[5] = PAMPA-BBB in vitro blood-brain barrier permeation assay; format: in vitro ADME
Procedure: The blood–brain barrier penetration capacity of the compounds was evaluated by using the parallel artificial membrane permeation assay (PAMPA). […] The porcine brain lipid (PBL) was obtained from Avanti Polar Lipids. The donor microplate (PVDF membrane, pore size of 0.45 nm) and the acceptor microplate were from Millipore. The acceptor 96-well microplate (COSTAR) was filled with 300 μL of a PBS/EtOH mixture (7:3) and the filter membrane was impregnated with 4 μL of PBL in dodecane (20 mg/mL). The compounds were dissolved in DMSO at a concentration of 5 mg/mL and diluted with the PBS/EtOH mixture (7:3) to a concentration of 100 μg /mL. Then, 200 μL of this solution was added to the donor wells and the wells were carefully placed on the acceptor plate, which was then incubated for 10 h at 25 °C in a vibrationless environment. After the incubation, the donor plate was removed and the concentration of compounds in the acceptor wells was determined with a UV plate reader (Flexstation 3). Each sample was analyzed at five wavelengths in four wells, and at least three independent runs were performed. The results are expressed as the mean ± standard deviation. In these experiments, 13 quality control standards of known BBB permeability were included to validate the analysis set.
where Vd is the volume in the donor well, Va is the volume in acceptor well, A is the filter area, t is the permeation time, [drug]acceptor is the absorbance of the compound in the acceptor well, and [drug]equilibrium is the theoretical equilibrium absorbance.

T1 sequence (P05067 672-713 limits assumed): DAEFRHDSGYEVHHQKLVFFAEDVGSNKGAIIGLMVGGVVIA
T9 sequence (Q08499 388-715): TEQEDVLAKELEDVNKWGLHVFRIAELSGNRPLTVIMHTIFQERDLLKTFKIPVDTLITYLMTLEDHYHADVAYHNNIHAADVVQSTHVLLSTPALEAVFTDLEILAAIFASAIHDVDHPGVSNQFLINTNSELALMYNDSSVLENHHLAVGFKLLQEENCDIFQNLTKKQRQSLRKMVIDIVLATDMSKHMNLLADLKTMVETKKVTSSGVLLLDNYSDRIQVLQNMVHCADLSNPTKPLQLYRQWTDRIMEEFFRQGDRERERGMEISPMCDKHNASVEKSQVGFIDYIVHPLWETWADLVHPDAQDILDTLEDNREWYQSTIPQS
T4 sequence (O00408 580-941): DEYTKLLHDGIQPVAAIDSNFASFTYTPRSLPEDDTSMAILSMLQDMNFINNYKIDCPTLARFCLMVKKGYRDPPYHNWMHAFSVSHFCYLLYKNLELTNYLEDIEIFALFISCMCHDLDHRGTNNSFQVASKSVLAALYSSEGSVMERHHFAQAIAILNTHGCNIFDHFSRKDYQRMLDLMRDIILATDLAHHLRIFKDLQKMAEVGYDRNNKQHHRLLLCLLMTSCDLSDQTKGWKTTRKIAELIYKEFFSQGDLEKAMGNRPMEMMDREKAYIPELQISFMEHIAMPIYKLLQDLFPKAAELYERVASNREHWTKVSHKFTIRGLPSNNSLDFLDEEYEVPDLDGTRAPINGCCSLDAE
T10 sequence (Q01064 10-487 isoform Q01064-2): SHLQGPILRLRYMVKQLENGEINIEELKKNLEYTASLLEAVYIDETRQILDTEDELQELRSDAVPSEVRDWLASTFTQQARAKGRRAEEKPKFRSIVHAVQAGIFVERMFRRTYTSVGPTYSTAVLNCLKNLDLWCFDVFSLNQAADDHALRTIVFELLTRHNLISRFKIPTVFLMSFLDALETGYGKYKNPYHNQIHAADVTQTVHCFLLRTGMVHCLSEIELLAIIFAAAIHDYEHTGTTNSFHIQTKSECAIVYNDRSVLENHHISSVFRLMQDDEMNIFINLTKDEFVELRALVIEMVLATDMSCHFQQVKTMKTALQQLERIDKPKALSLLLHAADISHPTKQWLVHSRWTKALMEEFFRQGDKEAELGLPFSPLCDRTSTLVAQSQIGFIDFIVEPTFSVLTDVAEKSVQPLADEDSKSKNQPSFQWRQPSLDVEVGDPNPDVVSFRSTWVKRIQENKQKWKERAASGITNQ
T6 sequence (O60658 480-820): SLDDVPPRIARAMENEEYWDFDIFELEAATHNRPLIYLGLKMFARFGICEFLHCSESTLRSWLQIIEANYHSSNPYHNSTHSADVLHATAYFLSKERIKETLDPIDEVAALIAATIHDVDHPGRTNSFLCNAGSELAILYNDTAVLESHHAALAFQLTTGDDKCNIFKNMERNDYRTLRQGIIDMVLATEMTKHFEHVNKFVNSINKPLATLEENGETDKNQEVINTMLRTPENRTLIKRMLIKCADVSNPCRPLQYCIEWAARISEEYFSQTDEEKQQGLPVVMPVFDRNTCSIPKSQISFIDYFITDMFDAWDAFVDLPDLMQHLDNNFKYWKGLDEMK
T8 sequence (Q14432 679-1087): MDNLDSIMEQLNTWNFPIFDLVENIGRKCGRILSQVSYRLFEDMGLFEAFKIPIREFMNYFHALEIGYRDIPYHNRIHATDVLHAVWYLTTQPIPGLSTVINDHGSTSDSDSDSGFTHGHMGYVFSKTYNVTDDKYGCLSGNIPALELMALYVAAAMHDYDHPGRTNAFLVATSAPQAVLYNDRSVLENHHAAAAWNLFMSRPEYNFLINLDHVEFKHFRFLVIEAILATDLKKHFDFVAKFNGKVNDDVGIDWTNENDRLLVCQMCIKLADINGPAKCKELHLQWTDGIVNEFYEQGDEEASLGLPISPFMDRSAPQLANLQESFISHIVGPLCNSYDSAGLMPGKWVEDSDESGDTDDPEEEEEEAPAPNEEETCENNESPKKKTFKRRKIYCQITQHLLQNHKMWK
T3 sequence (Q13946 130-482): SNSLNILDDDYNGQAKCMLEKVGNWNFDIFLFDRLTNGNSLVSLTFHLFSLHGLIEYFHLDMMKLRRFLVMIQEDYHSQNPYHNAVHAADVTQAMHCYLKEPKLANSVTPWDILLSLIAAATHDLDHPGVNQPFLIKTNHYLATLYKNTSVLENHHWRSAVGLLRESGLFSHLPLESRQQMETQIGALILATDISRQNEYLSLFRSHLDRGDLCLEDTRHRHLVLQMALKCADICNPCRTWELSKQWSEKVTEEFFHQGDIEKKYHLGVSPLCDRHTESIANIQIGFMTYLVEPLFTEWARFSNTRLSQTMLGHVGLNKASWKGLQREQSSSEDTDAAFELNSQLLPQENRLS
T2 sequence (P05067 672-713 limits assumed): as the sequence (P05067 672-713 limits assumed) above
T7 sequence (O76083 241-566): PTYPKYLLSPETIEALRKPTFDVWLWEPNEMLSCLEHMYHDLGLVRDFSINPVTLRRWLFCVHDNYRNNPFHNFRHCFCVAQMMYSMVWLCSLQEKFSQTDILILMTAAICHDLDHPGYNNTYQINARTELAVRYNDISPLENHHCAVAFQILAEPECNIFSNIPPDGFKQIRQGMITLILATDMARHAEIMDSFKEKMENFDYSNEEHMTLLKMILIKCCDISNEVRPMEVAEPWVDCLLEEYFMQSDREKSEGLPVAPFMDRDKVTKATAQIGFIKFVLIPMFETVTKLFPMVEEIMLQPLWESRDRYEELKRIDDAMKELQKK
T5 sequence (Q9Y233 714-1055): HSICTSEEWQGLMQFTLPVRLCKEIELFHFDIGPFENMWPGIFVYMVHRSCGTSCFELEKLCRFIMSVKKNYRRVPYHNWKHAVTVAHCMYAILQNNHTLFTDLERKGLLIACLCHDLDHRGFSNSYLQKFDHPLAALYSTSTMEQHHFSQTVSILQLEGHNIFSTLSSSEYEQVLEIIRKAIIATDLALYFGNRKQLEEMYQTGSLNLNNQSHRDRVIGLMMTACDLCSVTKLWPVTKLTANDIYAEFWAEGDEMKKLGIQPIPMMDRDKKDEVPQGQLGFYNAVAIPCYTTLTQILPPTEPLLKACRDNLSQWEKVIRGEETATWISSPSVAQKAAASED

Oc1c(I)cc(Cl)c2cccnc12 [CQ, clioquinol, reference compound]
inhibitory ratio of Cu^2+-induced Aβ1-42 aggregation (ThT) (Aβ1-42 [1]): 52.5% | Aβ fibrils by TEM, disaggregation of preformed fibrils (Aβ1-42 [2]): drastically reduced the amount of Aβ fibrils | Aβ fibrils by TEM, inhibition of Cu^2+-induced aggregation (Aβ1-42 [2]): fewer Aβ fibrils were detected | disaggregation of Cu^2+-induced Aβ1-42 fibrils (ThT) (Aβ1-42 fibrils): 50.9% | oxygen radical absorbance capacity, ORAC-FL value [3]: 0.62 ORAC-FL units

C[C@@H](NCc1cc(F)ccc1O)c1nc2c(cnn2C2CCCC2)c(=O)[nH]1 [Compound 22]
IC50 (PDE7A1 (130–482)): > 40000 nM | fold of selectivity of PDE9 over PDE7A1 (PDE7A1 (130–482)): > 1278 fold | IC50 (PDE2A3 (580–941)): 13000 nM | fold of selectivity of PDE9 over PDE2A3 (PDE2A3 (580–941)): 421 fold | IC50 (PDE10A2 (448–789)): 33000 nM | IC50 (PDE8A1 (480–820)): > 50000 nM | fold of selectivity of PDE9 over PDE8A1 (PDE8A1 (480–820)): > 1598 fold | IC50 (PDE9A2 (181–506)): 31 ± 1 nM | IC50 (PDE3A (679–1087)): > 10000 nM | fold of selectivity of PDE9 over PDE3A (PDE3A (679–1087)): 323 fold | IC50 (PDE4D2 (86–413)): 11000 nM | fold of selectivity of PDE9 over PDE4D2 (PDE4D2 (86–413)): 355 fold | logP at 30 min [4]: 1.51 | IC50 (PDE5A1 (535–860)): 1600 nM | fold of selectivity of PDE9 over PDE5A1 (PDE5A1 (535–860)): 50 fold | IC50 (PDE1B2 (10–487)): 7000 nM | fold of selectivity of PDE9 over PDE1B2 (PDE1B2 (10–487)): 234 fold | ORAC [3]: 5.52 ± 0.51 μmol of Trolox equiv/μmol tested compound | Papp at 10 h, 100 μg/mL ([5]; PAMPA, PBS:EtOH (70:30), mean ± SD of three independent experiments, read-out: Permeability): 33.2 ± 4.76 ×10⁻⁶ cm/s | prediction of penetration into the CNS ([5]; from PAMPA-BBB Pe): CNS+ (Compounds of high BBB permeation (CNS+) Pe > 4.7)
